Reference: BindingDB's records for patent US10975056 (Glaxosmithkline Intellectual Property Development, 2021)

Molecular target: DNA (cytosine-5)-methyltransferase 1 (Homo sapiens, UniProt P26358)
Test: Biochemical Activity Assay
Procedure: Biochemical activity of DNMT1 analyzed using SPA technology. […] Low control wells contained 5 μL of buffer instead of enzyme. Following a 40 minute incubation, the reaction was quenched upon the addition of 10 μL of stop mixture containing 1 mM SAM (Sigma A7007) and 2 mg/mL PEI beads (Perkin Elmer RPNQ0098).

DNA (cytosine-5)-methyltransferase 1, sequence (P26358 whole entry): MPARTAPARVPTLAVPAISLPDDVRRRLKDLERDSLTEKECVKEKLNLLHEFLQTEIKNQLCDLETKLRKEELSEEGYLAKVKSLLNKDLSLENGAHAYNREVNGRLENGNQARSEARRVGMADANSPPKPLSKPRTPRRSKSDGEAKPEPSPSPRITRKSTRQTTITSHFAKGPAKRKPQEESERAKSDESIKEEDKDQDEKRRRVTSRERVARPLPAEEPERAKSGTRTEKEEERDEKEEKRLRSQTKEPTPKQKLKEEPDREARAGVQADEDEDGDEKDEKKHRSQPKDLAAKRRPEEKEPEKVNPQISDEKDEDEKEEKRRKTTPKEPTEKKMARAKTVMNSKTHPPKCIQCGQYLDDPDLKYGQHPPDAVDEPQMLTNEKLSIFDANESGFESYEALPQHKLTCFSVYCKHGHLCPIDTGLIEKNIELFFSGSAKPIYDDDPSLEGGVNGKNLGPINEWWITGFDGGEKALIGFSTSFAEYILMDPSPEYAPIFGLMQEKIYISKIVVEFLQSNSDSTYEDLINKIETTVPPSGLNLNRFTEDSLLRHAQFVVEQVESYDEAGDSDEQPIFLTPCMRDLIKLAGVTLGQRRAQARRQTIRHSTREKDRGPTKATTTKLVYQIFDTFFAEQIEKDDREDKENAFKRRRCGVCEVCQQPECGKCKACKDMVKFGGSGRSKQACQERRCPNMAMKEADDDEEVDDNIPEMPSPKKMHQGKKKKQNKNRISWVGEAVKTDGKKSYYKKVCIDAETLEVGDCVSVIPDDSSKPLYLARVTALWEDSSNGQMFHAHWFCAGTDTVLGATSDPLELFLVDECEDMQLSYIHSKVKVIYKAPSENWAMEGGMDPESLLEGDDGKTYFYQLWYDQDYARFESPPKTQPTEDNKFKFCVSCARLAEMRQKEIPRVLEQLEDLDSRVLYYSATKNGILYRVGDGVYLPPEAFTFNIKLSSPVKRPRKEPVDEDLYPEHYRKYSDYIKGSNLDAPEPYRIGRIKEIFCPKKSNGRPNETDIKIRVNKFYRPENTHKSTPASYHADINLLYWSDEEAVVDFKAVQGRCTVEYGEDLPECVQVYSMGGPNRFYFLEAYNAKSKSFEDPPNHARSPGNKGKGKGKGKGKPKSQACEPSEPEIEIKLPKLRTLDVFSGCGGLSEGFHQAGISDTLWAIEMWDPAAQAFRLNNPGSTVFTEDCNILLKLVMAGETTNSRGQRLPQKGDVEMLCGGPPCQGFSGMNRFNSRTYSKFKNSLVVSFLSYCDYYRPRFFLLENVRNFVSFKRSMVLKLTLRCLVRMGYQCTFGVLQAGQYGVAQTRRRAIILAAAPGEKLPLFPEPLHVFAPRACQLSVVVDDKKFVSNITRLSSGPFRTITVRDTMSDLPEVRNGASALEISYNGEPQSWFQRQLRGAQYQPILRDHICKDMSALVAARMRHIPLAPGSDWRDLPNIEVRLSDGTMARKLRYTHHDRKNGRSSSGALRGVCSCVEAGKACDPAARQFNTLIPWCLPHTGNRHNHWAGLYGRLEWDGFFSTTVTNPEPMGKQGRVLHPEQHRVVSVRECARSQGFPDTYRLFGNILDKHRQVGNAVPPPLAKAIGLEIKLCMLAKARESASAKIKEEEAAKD

SMILES | IC50
CCc1c(C#N)c(SC(C(N)=O)c2ccccc2)nc(N2CCC(N3[C@H](C)CC[C@H]3C)CC2)c1C#N (some centres undefined) [US10975056, Example 472] | < 0.32 µM
CCc1c(C#N)c(SC(C(N)=O)c2ccccc2)nc(N(C)CC(=O)N2CC[C@@H](CO)C2)c1C#N (some centres undefined) [US10975056, Example 652] | < 0.32 µM
CCc1c(C#N)c(SC(C(N)=O)c2ccccc2)nc(N2CCC(NCC3(C)CCC3)CC2)c1C#N (centres undefined) [US10975056, Example 466] | < 0.32 µM
CCc1c(C#N)c(SCc2ccc(S(N)(=O)=O)cc2)nc(N2CCCN(C)CC2)c1C#N [US10975056, Example 76] | < 0.32 µM
